In US20130040306A1, “BACKSCATTERING INTERFEROMETRIC ANALYSIS OF MEMBRANE MATERIALS” (priority 2011, published 2013):
pIC50: −log10 of the molar value. “Also recorded” adds a separate entry of the source.

Key:
PLD1.d311 = biological target: T1, PLD1.d311 (Homo sapiens, UniProt Q13393); assay: in vitro PLD activity assay (release of tritiated choline headgroup, lipid vesicles); format: biochemical; details: for pIC50: in vitro PLD activity assay
T1 construct: an amino-terminally-truncated and catalytically active construct; made in house; host or cells: SF21 insect cells
T1 sequence (Q13393 312-1074 limits assumed): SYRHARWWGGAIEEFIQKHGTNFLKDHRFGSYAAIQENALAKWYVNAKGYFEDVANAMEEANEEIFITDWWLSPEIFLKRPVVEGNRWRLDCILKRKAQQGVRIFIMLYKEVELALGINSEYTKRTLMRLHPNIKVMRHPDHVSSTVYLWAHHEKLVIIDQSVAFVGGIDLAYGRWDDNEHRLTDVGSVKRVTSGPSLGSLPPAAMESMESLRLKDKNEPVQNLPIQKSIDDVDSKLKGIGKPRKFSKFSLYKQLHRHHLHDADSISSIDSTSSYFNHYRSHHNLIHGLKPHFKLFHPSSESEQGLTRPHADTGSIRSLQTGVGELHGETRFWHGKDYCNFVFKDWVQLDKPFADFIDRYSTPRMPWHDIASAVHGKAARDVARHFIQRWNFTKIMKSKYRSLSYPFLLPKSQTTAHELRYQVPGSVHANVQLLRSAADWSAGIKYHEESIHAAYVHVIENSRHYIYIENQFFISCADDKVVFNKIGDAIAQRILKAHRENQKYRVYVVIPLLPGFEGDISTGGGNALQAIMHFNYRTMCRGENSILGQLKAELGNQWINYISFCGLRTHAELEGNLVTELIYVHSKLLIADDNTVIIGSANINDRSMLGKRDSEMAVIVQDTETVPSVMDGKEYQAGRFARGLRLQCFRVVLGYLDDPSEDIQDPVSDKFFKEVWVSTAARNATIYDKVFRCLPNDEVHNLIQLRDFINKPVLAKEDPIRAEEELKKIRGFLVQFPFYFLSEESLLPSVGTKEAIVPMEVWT
Procedure: In vitro activity assays can be performed to measure changes in Km, and Vmax due to small molecule inhibition. This reconstitution assay uses large unilamellar vesicles (generated by extrusion of defined % mol amounts of purified lipid species) incubated with purified PLD and measures the release of a tritiated choline headgroup as a readout of catalytic activity.
Concentration response curves were generated in a radioisotopically labelled activity assay for three VU-series compounds and tungstate with N-myr-Arf1 activated PLD1.d311. Ki measurements of these inhibitors were obtained using BSI.

PLD1c.d311 [1] = biological target: T2, PLD1c.d311 (Homo sapiens, UniProt Q13393); assay: BSI interfacial lipid binding affinity (Ks) of PLD after small molecule treatment; details: small molecule treated enzyme
T2 construct: an amino-terminally-truncated and catalytically active construct; made in house; host or cells: SF21 insect cells
T2 sequence (Q13393 312-1074 limits assumed): T1 sequence (Q13393 312-1074 limits assumed)
Description: Eukaryotic PLD is an interfacial enzyme that, in the classic model, binds the lipid surface via interaction with PI(4,5)P2 prior to hydrolyzing substrate. […] In order to study PLD, the interfacial binding affinity must first be measured (Ks), and subsequent studies must saturate lipid binding to force application of Michaelis-Menten kinetics.
(§1) For the backscattering interferometry experiments, large-unilamellar lipid vesicles are generated via extrusion for use in interfacial kinetic studies. The composition generally includes 86% mol neutral diluent (36:2 PE or 36:2 PG), 5% mol PI(4,5)P2, and 8% mol 32:0 PC. Following extrusion, bulk lipid concentration is confirmed via quantitative LC/MS. A HeNe laser beam is then directed at a sample in the channel of a microfluidic chip, resulting in an interference fringe pattern that is detected by the CCD camera. This fringe pattern shifts spatially as the refractive index (RI) of the sample changes; these shifts are translated into a numerical change in phase of the corresponding Fourier transformation. […]
(§2) BSI can also be used to measure changes in lipid binding affinities due to small molecule treatment. BSI-derived values can be compared to Ks values determined using classic biochemical methods.

PLD1c.d311 [2] = biological target: T2, PLD1c.d311; assay: BSI small molecule binding to purified PLD1c.d311 in the absence of lipid; details: for direct binding to purified PLD1c.d311 by BSI: absence of lipid
Description: Protein constructs that are composed of different domains of the enzyme are thus used to determine the approximate site of small molecule interaction. The bulk of the studies performed thus far use human PLD1c.d311, an amino-terminally-truncated and catalytically active construct that has robust expression in SF21 insect cells, and can be purified to homogeneity over a single affinity chromatography step. This construct does retain a small portion of the pleckstrin homology domain that is necessary for catalytic activity of the enzyme (reason for this is unknown).
Binding studies are performed using backscattering interferometry (BSI), which can be performed on an efficient nanoscale level with a picomolar limit of detection, and can be used to measure Ki and Ks values for inhibitor-treated purified protein.
(§3) For the backscattering interferometry experiments, large-unilamellar lipid vesicles are generated via extrusion for use in interfacial kinetic studies. The composition generally includes 86% mol neutral diluent (36:2 PE or 36:2 PG), 5% mol PI(4,5)P2, and 8% mol 32:0 PC. Following extrusion, bulk lipid concentration is confirmed via quantitative LC/MS. A HeNe laser beam is then directed at a sample in the channel of a microfluidic chip, resulting in an interference fringe pattern that is detected by the CCD camera. This fringe pattern shifts spatially as the refractive index (RI) of the sample changes; these shifts are translated into a numerical change in phase of the corresponding Fourier transformation. The absolute value of the magnitude in phase change corresponds to the change in solvation/hydration of the protein upon binding ligand, and can be used to plot a ligand binding curve. This inventive BSI technique can also accurately and reproducibly measure protein-lipid binding. This technique measures small shifts in RI phase (limit of sensitivity is picomolar) and requires only nanomolar concentrations of protein and ligand in a 1 μl volume channel.

albumin [3] = biological target: T3, albumin (Homo sapiens, UniProt P02768); assay: BSI small molecule binding to albumin in the absence of lipid
T3 sequence (P02768 25-609, species assumed): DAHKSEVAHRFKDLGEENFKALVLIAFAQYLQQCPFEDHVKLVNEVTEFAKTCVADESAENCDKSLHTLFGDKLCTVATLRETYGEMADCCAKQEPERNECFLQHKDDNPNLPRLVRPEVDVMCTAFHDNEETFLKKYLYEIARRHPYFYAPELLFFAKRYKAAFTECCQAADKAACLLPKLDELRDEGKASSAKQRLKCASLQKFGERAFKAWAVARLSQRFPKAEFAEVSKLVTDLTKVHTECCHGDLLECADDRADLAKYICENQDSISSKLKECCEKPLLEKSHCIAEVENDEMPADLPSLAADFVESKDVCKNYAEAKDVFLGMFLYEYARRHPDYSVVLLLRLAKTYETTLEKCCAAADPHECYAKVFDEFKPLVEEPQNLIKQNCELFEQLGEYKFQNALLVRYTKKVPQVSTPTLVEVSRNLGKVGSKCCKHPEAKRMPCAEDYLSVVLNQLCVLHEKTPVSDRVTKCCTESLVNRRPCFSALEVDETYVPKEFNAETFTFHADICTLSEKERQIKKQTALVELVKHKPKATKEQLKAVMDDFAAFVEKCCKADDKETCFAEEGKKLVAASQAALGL
Description: as §3, with “This technique measures small shifts in RI phase (limit of sensitivity is picomolar) and requires only nanomolar concentrations of protein and ligand in a 1 μl volume channel.” left out
(§4) BSI was used to measure Kd of two VU-series compounds for albumin in the absence of lipid. […] As another control to confirm that vesicle composition is not disrupted due to small molecule treatment, Kd and Ks are measured for PLCδ1, which binds PIP2 at both its PH and catalytic domains.

PLCδ1 [4] = biological target: T4, PLCδ1 (Homo sapiens, UniProt P51178); assay: BSI small molecule binding (Kd) to PLCδ1 control; details: control protein
T4 sequence (P51178 1-756): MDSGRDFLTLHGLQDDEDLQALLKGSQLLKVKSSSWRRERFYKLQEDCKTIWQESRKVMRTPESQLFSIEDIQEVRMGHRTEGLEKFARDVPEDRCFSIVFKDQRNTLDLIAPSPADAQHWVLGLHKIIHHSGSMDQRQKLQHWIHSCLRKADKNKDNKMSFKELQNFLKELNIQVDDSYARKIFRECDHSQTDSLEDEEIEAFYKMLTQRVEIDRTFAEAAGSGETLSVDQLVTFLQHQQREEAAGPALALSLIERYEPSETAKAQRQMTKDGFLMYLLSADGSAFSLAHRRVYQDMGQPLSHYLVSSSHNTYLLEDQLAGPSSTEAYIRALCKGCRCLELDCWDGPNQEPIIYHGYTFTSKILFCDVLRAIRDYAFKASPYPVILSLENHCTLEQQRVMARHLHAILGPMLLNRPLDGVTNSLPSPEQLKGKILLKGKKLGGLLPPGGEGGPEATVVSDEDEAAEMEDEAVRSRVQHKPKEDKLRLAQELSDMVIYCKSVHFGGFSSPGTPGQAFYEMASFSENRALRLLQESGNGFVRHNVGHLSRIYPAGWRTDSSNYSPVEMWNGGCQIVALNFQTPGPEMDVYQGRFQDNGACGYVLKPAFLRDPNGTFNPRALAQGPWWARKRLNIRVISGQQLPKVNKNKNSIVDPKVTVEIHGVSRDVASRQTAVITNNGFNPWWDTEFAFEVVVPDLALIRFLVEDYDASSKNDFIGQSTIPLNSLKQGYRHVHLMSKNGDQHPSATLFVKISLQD
Description: as §3, with “This technique measures small shifts in RI phase (limit of sensitivity is picomolar) and requires only nanomolar concentrations of protein and ligand in a 1 μl volume channel.” left out
as §4

[5] = preliminary DMPK plasma protein studies; format: in vitro ADME
albumin [6] = biological target: T3, albumin; assay: BSI lipid binding (Ks) with albumin after small molecule treatment; details: small molecule treatment vs vehicle
Description: as §1, with “transformation. The absolute value of the magnitude in phase change corresponds to the change in solvation/hydration of the protein upon binding ligand, and can be used to plot a ligand binding curve.” for “transformation.”
as §2, §4

PLCδ1 [7] = biological target: T4, PLCδ1; assay: BSI lipid binding (Ks) of PLCδ1 after small molecule treatment; details: small molecule treatment vs vehicle
Description: as §3, with “This technique measures small shifts in RI phase (limit of sensitivity is picomolar) and requires only nanomolar concentrations of protein and ligand in a 1 μl volume channel.” left out
as §4

O=C(c1ccc(OCCN2CCCCC2)cc1)c1c(-c2ccc(O)cc2)sc2cc(O)ccc12 [raloxifene]
PLD inhibition in vitro (in words) (PLD1.d311): confirmed to be PLD inhibitors in vitro
pIC50 (PLD1.d311): 5.00
shift of Ks (interfacial lipid binding) of PLD (PLD1c.d311 [1]): shifting Ks; also recorded: shifts Ks
direct binding to purified PLD1c.d311 by BSI (PLD1c.d311 [2]): directly binds the enzyme
direct binding to purified PLD1c.d311 by BSI (PLD1c.d311 [2]; listed as Raloxifene): directly binds the enzyme in the absence of lipid

[O]=[W](=[O])([O-])[O-] [tungstate]
Ki (BSI) compared with IC50 (activity assay) (PLD1c.d311 [2]; PLD1.d311, absence of lipid, vs IC50 with N-myr-Arf1 activated PLD1.d311): ≤ 2 fold
direct binding to purified PLD1c.d311 by BSI (PLD1c.d311 [2]): directly binds the inhibitors in the absence of lipid

C[C@@H](CN1CCC(n2c(=O)[nH]c3cc(Br)ccc32)CC1)NC(=O)[C@@H]1C[C@H]1c1ccccc1 [VU0359595]
binding to albumin by BSI (albumin [3]): bind albumin
binding to PLCδ1 by BSI (PLCδ1 [4]): does not bind
plasma protein bound [5]: 98%
Ks compared to vehicle (albumin control) (albumin [6]): disrupted compared to vehicle
Ks of PLCδ1 compared to vehicle (PLCδ1 [7]): does not show shifted Ks

CC/C(=C(\c1ccccc1)c1ccc(OCCN(C)C)cc1)c1ccccc1 [tamoxifen]
PLD inhibition in vitro (in words) (PLD1.d311): confirmed to be PLD inhibitors in vitro
pIC50 (PLD1.d311): 4.32
direct binding to purified PLD1c.d311 by BSI (PLD1c.d311 [2]): does not bind
mechanism of PLD inhibition (PLD1c.d311 [2]; concluded from BSI measurements): indirectly inhibit PLD activity
